Source: PubChem BioAssay AID218 (DTP/NCI, 2004)
Several values for one entry are separate records, joined by “and”; a condition that tells them apart may be missing. Identical values can stand only once.

Test system: C57BL/6 mice, Adenocarcinoma 755 sc, tumor weight T/C
Assay: NCI In Vivo Anticancer Drug Screen. Data for tumor model Adenocarcinoma 755 (subcutaneous) in C57BL/6 mice
Settings: endpoint: mean tumor weight, higher = larger tumour
Protocol: The antitumor activity of compounds was measured in mice bearing transplantable tumors. Survival or tumor size were measured and the results are expressed as the measurement made in the treated group (T) divided by the measurement made in the vehicle treated control group (C). The tumor model used in this assay is Adenocarcinoma 755 (subcutaneous) in C57BL/6 mice

[1] = dose: 12.5 mg/kg/injection, schedule: Q01DX011 (ip), vehicle: saline
[2] = dose: 25.0 mg/kg/injection, schedule: Q01DX011 (ip), vehicle: saline
[3] = dose: 50.0 mg/kg/injection, schedule: Q01DX011 (ip), vehicle: saline
[4] = dose: 100.0 mg/kg/injection, schedule: Q01DX011 (ip), vehicle: saline
[5] = dose: 125.0 mg/kg/injection, schedule: Q01DX011 (ip), vehicle: saline
[6] = dose: 150.0 mg/kg/injection, schedule: Q01DX011 (ip), vehicle: saline
[7] = dose: 2.5 mg/kg/injection, schedule: Q01DX011 (ip), vehicle: carboxymethylcellulose (CMC)
[8] = dose: 10.0 mg/kg/injection, schedule: Q02DX006 (ip), vehicle: other
[9] = dose: 20.0 mg/kg/injection, schedule: Q01DX011 (ip), vehicle: carboxymethylcellulose (CMC)
[10] = dose: 25.0 mg/kg/injection, schedule: Q01DX011 (ip), vehicle: carboxymethylcellulose (CMC)
[11] = dose: 2.5 mg/kg/injection, schedule: Q01DX011 (ip), vehicle: saline
[12] = dose: 5.0 mg/kg/injection, schedule: Q01DX011 (ip), vehicle: saline
[13] = dose: 10.0 mg/kg/injection, schedule: Q01DX011 (ip), vehicle: saline
[14] = dose: 15.0 mg/kg/injection, schedule: Q01DX011 (ip), vehicle: saline
[15] = dose: 6.0 mg/kg/injection, schedule: Q02DX006 (ip), vehicle: saline

Cc1ncc(CO)c(C)c1O
T/C (dose: 3.13 mg/kg/injection, schedule: Q01DX011 (ip), vehicle: saline): 88 % of control | T/C (dose: 6.25 mg/kg/injection, schedule: Q01DX011 (ip), vehicle: saline): 107 % of control | T/C [1]: 98 % of control | T/C [2]: 106 % of control | T/C [3]: 74 % of control and 88 % of control | T/C [4]: 84 % of control and 107 % of control | T/C [5]: 47 % of control | T/C [6]: 56 % of control and 66 % of control | T/C (dose: 200.0 mg/kg/injection, schedule: Q01DX011 (ip), vehicle: saline): 119 % of control

Cn1cc(NC(=O)c2cc(NC(=O)CN=C(N)N)cn2C)cc1C(=O)NCCC(=N)N
T/C (dose: 20.0 mg/kg/injection, schedule: Q02DX006 (ip), vehicle: water): 95 % of control | T/C (dose: 25.0 mg/kg/injection, schedule: Q02DX006 (ip), vehicle: water): 69 % of control | T/C (dose: 30.0 mg/kg/injection, schedule: Q02DX006 (ip), vehicle: water): 31 % of control

O=CNC(Cc1ccc(N(CCCl)CCCl)cc1)C(=O)O (configuration not stated)
T/C (dose: 40.0 mg/kg/injection, schedule: Q01DX011 (ip), vehicle: carboxymethylcellulose (CMC)): 39 % of control | T/C (dose: 80.0 mg/kg/injection, schedule: Q01DX011 (ip), vehicle: carboxymethylcellulose (CMC)): 1 % of control

CS(=O)(=O)OCCCCOS(C)(=O)=O
T/C [7]: 86 % of control | T/C (dose: 5.0 mg/kg/injection, schedule: Q01DX011 (ip), vehicle: carboxymethylcellulose (CMC)): 57 % of control | T/C (dose: 10.0 mg/kg/injection, schedule: Q01DX011 (ip), vehicle: carboxymethylcellulose (CMC)): 69 % of control | T/C [8]: 59 % of control | T/C (dose: 12.5 mg/kg/injection, schedule: Q02DX006 (ip), vehicle: other): 51 % of control | T/C (dose: 15.0 mg/kg/injection, schedule: Q01DX011 (ip), vehicle: carboxymethylcellulose (CMC)): 56 % of control | T/C (dose: 15.0 mg/kg/injection, schedule: Q02DX006 (ip), vehicle: other): 76 % of control | T/C [9]: 49 % of control | T/C [10]: 26 % of control

CCn1cnc2c(Cl)ncnc21
T/C [2]: 29 % of control | T/C [3]: 10 % of control | T/C [4]: 1 % of control

CC1CN1P(=S)(N1CC1C)N1CC1C (configuration not stated)
T/C (dose: 1.25 mg/kg/injection, schedule: Q01DX011 (ip), vehicle: saline): 67 % of control | T/C [11]: 78 % of control | T/C [12]: 91 % of control | T/C [13]: 73 % of control

CCCCn1cnc2c(SSc3ncnc4c3ncn4CCCC)ncnc21
T/C (dose: 3.75 mg/kg/injection, schedule: Q01DX011 (ip), vehicle: saline): 26 % of control | T/C (dose: 7.5 mg/kg/injection, schedule: Q01DX011 (ip), vehicle: saline): 7 % of control | T/C [14]: 7 % of control | T/C (dose: 30.0 mg/kg/injection, schedule: Q01DX011 (ip), vehicle: saline): 6 % of control

Clc1ncnc2c1ncn2C1CCCC1
T/C [10]: 79 % of control | T/C (dose: 50.0 mg/kg/injection, schedule: Q01DX011 (ip), vehicle: carboxymethylcellulose (CMC)): 118 % of control | T/C (dose: 75.0 mg/kg/injection, schedule: Q01DX011 (ip), vehicle: carboxymethylcellulose (CMC)): 71 % of control | T/C (dose: 100.0 mg/kg/injection, schedule: Q01DX011 (ip), vehicle: carboxymethylcellulose (CMC)): 18 % of control

Clc1ncnc2c1ncn2Cc1ccco1
T/C [1]: 63 % of control | T/C [2]: 62 % of control | T/C [3]: 86 % of control | T/C [4]: 51 % of control

O=C(O)CCCCC1NC(=O)CS1 (configuration not stated)
T/C (dose: 225.0 mg/kg/injection, schedule: Q02DX006 (ip), vehicle: water): 91 % of control | T/C (dose: 275.0 mg/kg/injection, schedule: Q02DX006 (ip), vehicle: water): 101 % of control

O=[N+]([O-])c1ccc(CSc2ncnc3nc[nH]c23)cc1
T/C [4]: 4 % of control

S=c1nc[nH]c2nc[nH]c12
T/C (dose: 1.5 mg/kg/injection, schedule: Q01DX011 (ip), vehicle: carboxymethylcellulose (CMC)): 26 % of control | T/C [7]: 7 % of control | T/C [11]: 4 % of control | T/C [12]: 8 % of control and 13 % of control | T/C (dose: 5.0 mg/kg/injection, schedule: Q01DX011 (oral), vehicle: carboxymethylcellulose (CMC)): 1 % of control | T/C (dose: 6.0 mg/kg/injection, schedule: Q01DX011 (ip), vehicle: carboxymethylcellulose (CMC)): 4 % of control | T/C [8]: 2 % of control | T/C [14]: 6 % of control | T/C [9]: 2 % of control | T/C (dose: 20.0 mg/kg/injection, schedule: Q01DX011 (oral), vehicle: alkali diluted with saline): 2 % of control | T/C (dose: 20.0 mg/kg/injection, schedule: Q02DX006 (ip), vehicle: other): 2 % of control | T/C (dose: 30.0 mg/kg/injection, schedule: Q02DX006 (ip), vehicle: other): 3 % of control | T/C (dose: 40.0 mg/kg/injection, schedule: Q01DX011 (oral), vehicle: alkali diluted with saline): 2 % of control | T/C (dose: 80.0 mg/kg/injection, schedule: Q01DX011 (oral), vehicle: alkali diluted with saline): 1 % of control | T/C (dose: 320.0 mg/kg/injection, schedule: Q01DX001 (oral), vehicle: alkali diluted with saline): 11 % of control | T/C (dose: 320.0 mg/kg/injection, schedule: Q03DX004 (oral), vehicle: alkali diluted with saline): 1 % of control | T/C (dose: 320.0 mg/kg/injection, schedule: Q07DX002 (oral), vehicle: alkali diluted with saline): 5 % of control | T/C (dose: 480.0 mg/kg/injection, schedule: Q01DX001 (oral), vehicle: alkali diluted with saline): 8 % of control | T/C (dose: 480.0 mg/kg/injection, schedule: Q07DX002 (oral), vehicle: alkali diluted with saline): 4 % of control | T/C (dose: 640.0 mg/kg/injection, schedule: Q01DX001 (oral), vehicle: alkali diluted with saline): 9 % of control | T/C (dose: 640.0 mg/kg/injection, schedule: Q07DX002 (oral), vehicle: alkali diluted with saline): 2 % of control | T/C (dose: 960.0 mg/kg/injection, schedule: Q01DX001 (oral), vehicle: alkali diluted with saline): 11 % of control

Cn1cnc([N+](=O)[O-])c1SCc1ccccc1
T/C [3]: 52 % of control | T/C [4]: 49 % of control | T/C [5]: 33 % of control | T/C [6]: 54 % of control | T/C (dose: 175.0 mg/kg/injection, schedule: Q01DX011 (ip), vehicle: saline): 66 % of control

O=c1[nH]c(=O)c2n[nH]nc2[nH]1
T/C (dose: 75.0 mg/kg/injection, schedule: Q01DX011 (ip), vehicle: saline): 154 % of control | T/C [6]: 115 % of control

N=C(N)CCNC(=O)C1CCC(N)=N1 (configuration not stated)
T/C (dose: 4.0 mg/kg/injection, schedule: Q02DX006 (ip), vehicle: saline): 59 % of control | T/C [15]: 29 % of control and 53 % of control | T/C (dose: 10.0 mg/kg/injection, schedule: Q02DX006 (ip), vehicle: saline): 44 % of control

CCSCCC(N)C(=O)O (configuration not stated)
T/C [3]: 113 % of control | T/C (dose: 75.0 mg/kg/injection, schedule: Q02DX006 (ip), vehicle: other): 67 % of control | T/C [4]: 67 % of control and 78 % of control | T/C (dose: 100.0 mg/kg/injection, schedule: Q02DX006 (ip), vehicle: other): 65 % of control | T/C [6]: 72 % of control

Nc1[nH]c(=S)nc2nc[nH]c12
T/C (dose: 5.0 mg/kg/injection, schedule: Q02DX006 (ip), vehicle: saline): 46 % of control | T/C [15]: 33 % of control | T/C (dose: 8.0 mg/kg/injection, schedule: Q02DX006 (ip), vehicle: saline): 25 % of control

Cc1c2ccccc2c(C)c2c1ccc1ccccc12
T/C (dose: 9.0 mg/kg/injection, schedule: Q01DX011 (ip), vehicle: saline): 44 % of control | T/C (dose: 19.0 mg/kg/injection, schedule: Q01DX011 (ip), vehicle: saline): 19 % of control

Nc1nc(SCc2ccccc2)c2[nH]cnc2n1
T/C [11]: 17 % of control | T/C [12]: 5 % of control | T/C [13]: 2 % of control

C=CC(COC(C)=O)N1CC1 (configuration not stated)
T/C (dose: 1.87 mg/kg/injection, schedule: Q01DX011 (oral), vehicle: saline): 107 % of control | T/C (dose: 3.75 mg/kg/injection, schedule: Q01DX011 (oral), vehicle: saline): 56 % of control | T/C (dose: 7.5 mg/kg/injection, schedule: Q01DX011 (oral), vehicle: saline): 70 % of control and 80 % of control

O=C(O)C(=O)CF
T/C [3]: 63 % of control

Nc1nc(=S)c2ncn(C3OC(CO)C(O)C3O)c2[nH]1 (configuration not stated)
T/C (dose: 0.5 mg/kg/injection, schedule: Q01DX011 (ip), vehicle: carboxymethylcellulose (CMC)): 48 % of control | T/C (dose: 1.0 mg/kg/injection, schedule: Q01DX011 (ip), vehicle: carboxymethylcellulose (CMC)): 13 % of control | T/C (dose: 2.0 mg/kg/injection, schedule: Q01DX011 (ip), vehicle: carboxymethylcellulose (CMC)): 2 % of control
